{"source": "patent US4370339A", "about": "“Method for treating inflammatory conditions” (Abbott Laboratories, priority 1981, dated 1983)", "key": {"[1]": {"tested_on": "reverse passive Arthus reaction", "experiment": "reverse passive Arthus reaction in the rat", "format": "in vivo, rat (male Sprague-Dawley)", "conditions": "oral, 100 mg/kg of body weight; lesion measured 4 h after anti-B.S.A.; groups of 4 rats", "from_the_text": "The anti-inflammatory activity of the compounds used in the invention was established using the reverse passive Arthus reaction in the rat as described by G. W. Carter and R. A. Krause in Federation Proceedings, Vol. 35, page 774, 1976. Although the carrageenin rat paw edema test (Winter et al., Proc. Soc. Exp. Biol. Med., 111, 554, 1962) can also be used to establish anti-inflammatory activity, the Arthus reaction, unlike carrageenin induced edema, is a well-characterized immune reaction which bears close resemblance to the pathogenesis of rheumatoid arthritis.\nThe Arthus reaction represents one of the oldest and best studied models of immunological injury. It is produced by the injection of antigen locally into a hyperimmunized animal or by the injection of a small amount of antibody into the skin of an animal that has just previously been given a large amount of soluble antigen intravenously. In both cases, the antigen and antibody become deposited in the walls of small venules. Plasma complement is rapidly bound and activated. […]\nThirty minutes after administration of the drug, each animal is injected intradermally with 0.05 ml of 1.44% anti-B.S.A. into the dorsal skin. […] Two perpendicular diameters of each lesion are measured. […]"}, "rats": {"tested_on": "rats", "experiment": "toxicity, fatality ratio in rats", "format": "in vivo", "conditions": "for Fatality Ratio: rats", "experimental": "The lesser toxicity of the 1-alkaryl derivatives is illustrated by the data of Table 3, which gives the fatality ratio in rats when the compounds were administered in the indicated dosages."}, "carrageenin pleurisy": {"tested_on": "carrageenin pleurisy", "experiment": "modification of the carrageenin pleurisy assay", "format": "in vivo", "from_the_text": "Also tested for comparison was phenylbutazone, a compound known to have anti-inflammatory activity."}}, "data": [{"smiles": "O=C1CCN(Cc2ccccc2)N1", "note": "[1-benzyl-3-pyrazolidinone, reference compound]", "values": [{"measurement": "% Inhibition Of Lesion", "setting": "[1]", "result": 28, "unit": "%"}]}, {"smiles": "NC1=NN(c2cccc(C(F)(F)F)c2)CC1", "note": "[1-(m-trifluoromethylphenyl)-3-amino-2-pyrazoline, reference compound]", "values": [{"measurement": "Fatality Ratio", "setting": "rats; 285 mg/kg", "result": "8/10"}]}, {"smiles": "CCCCC1C(=O)N(c2ccccc2)N(c2ccccc2)C1=O", "note": "[phenylbutazone, reference compound]", "values": [{"measurement": "% Inhibition Cells", "setting": "carrageenin pleurisy; 100 mg/kg", "result": 13, "unit": "%"}, {"measurement": "% Inhibition Volume Exudate", "setting": "carrageenin pleurisy; 100 mg/kg", "result": 59, "unit": "%"}]}, {"smiles": "NC1=NN(Cc2ccccc2)CC1", "note": "[1-benzyl-3-amino-2-pyrazoline]", "values": [{"measurement": "Fatality Ratio", "setting": "rats; 512 mg/kg", "result": "0/10"}, {"measurement": "toxicity relative to 1-aryl derivatives, in words", "setting": "rats; compared with 1-aryl derivatives of 3-amino-2-pyrazoline", "result": "markedly less toxic"}, {"measurement": "% Inhibition Cells", "setting": "carrageenin pleurisy; 120 mg/kg", "result": 55, "unit": "%"}, {"measurement": "% Inhibition Volume Exudate", "setting": "carrageenin pleurisy; 120 mg/kg", "result": 76, "unit": "%"}, {"measurement": "% Inhibition Of Lesion", "setting": "[1]", "result": 57, "unit": "%"}]}]}
